Test results published in patent US20260317312A1, “ISOXAZOLIDINES AS RIPK1 INHIBITORS AND USE THEREOF” (GENZYME CORPORATION, priority 2023, published 2026).

Columns and labels:
[1] = target: T1, hRIPK1 (aa 1-375) fusion protein (Homo sapiens, UniProt Q13546); assay: Receptor-Interacting Protein Kinase 1 inhibition, ADP Glo assay (conversion of ATP to ADP due to autophosphorylation); assay type: biochemical; details: ATP 50 μM, 30 min preincubation, 240 min incubation, room temperature, DMSO 1%
T1 construct: hRIPK1 (aa 1-375) fusion protein
T1 sequence (Q13546 1-375): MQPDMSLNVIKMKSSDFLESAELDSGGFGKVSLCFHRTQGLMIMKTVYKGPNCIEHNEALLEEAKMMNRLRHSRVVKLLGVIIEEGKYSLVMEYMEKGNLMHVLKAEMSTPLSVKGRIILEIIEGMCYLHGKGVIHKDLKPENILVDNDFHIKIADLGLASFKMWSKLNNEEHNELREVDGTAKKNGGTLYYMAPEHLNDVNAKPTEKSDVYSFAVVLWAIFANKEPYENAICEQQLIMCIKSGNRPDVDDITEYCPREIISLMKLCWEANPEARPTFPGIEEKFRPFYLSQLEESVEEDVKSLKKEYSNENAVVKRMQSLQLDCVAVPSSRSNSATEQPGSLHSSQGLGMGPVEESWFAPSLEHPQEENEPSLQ
Summary of the method: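 hRIPK1 (aa 1-375) fusion protein (3.6 μg/ml final) was preincubated 30 min at rt with compound (33300-1.69 nM, 1% DMSO), then 50 μM ATP was added for 240 min at rt. ADP from autophosphorylation was measured by ADP-Glo luminescence and curves fitted by nonlinear regression.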

U937 cells = assay: Cellular assay in U937 cells to measure activity of RIPK1-inhibitors on cell death (necroptosis); assay type: cell-based; details: Homo sapiens, U-937, TNFα/zVAD.fmk induced cell death (necroptosis), overnight (18 to 24 hrs), 37° C., MTS readout

Compound	IC50 [1]	IC50 (U937 cells)
NC(=O)c1cccc(OC[C@H]2CC[C@H](C(=O)N3OCC[C@H]3c3cnccn3)CC2)c1 [Compound 100, trans-3-[[4-[(3S)-3-pyrazin-2-ylisoxazolidine-2-carbonyl]cyclohexyl]methoxy]benzamide]	42 nM	139 nM
NC(=O)c1cc(OC[C@H]2CC[C@H](C(=O)N3OCC[C@H]3c3cnccn3)CC2)ccc1F [Compound 101, trans-2-fluoro-5-[[4-[(3S)-3-pyrazin-2-ylisoxazolidine-2-carbonyl]cyclohexyl]methoxy]benzamide]	40 nM	140 nM
NC(=O)c1ccc(OC[C@H]2CC[C@H](C(=O)N3OCC[C@H]3c3cnccn3)CC2)nc1 [Compound 102, trans-6-[[4-[(3S)-3-pyrazin-2-ylisoxazolidine-2-carbonyl]cyclohexyl]methoxy]pyridine-3-carboxamide]	47 nM	257 nM
N#Cc1ccc(OC[C@H]2CC[C@H](C(=O)N3OCC[C@H]3c3cnccn3)CC2)nc1 [Compound 103, trans-6-[[4-[(3S)-3-pyrazin-2-ylisoxazolidine-2-carbonyl]cyclohexyl]methoxy]pyridine-3-carbonitrile]	57 nM	98 nM
N#Cc1cc(F)cc(OC[C@H]2CC[C@H](C(=O)N3OCC[C@H]3c3cnccn3)CC2)c1 [Compound 104, trans-3-fluoro-5-[[4-[(3S)-3-pyrazin-2-ylisoxazolidine-2-carbonyl]cyclohexyl]methoxy]benzonitrile]	24 nM	30 nM
N#Cc1cc(F)cc([C@@H]2CCON2C(=O)[C@H]2C[C@H](n3ccc4cc(F)ccc43)C2)c1 [Compound 105, trans-3-fluoro-5-[(3S)-2-[3-(5-fluoroindol-1-yl)cyclobutanecarbonyl]isoxazolidin-3-yl]benzonitrile]	36 nM	202 nM
O=C([C@H]1C[C@H](n2ccc3cc(F)ccc32)C1)N1OCC[C@H]1c1cc(F)cc(F)c1 [Compound 106, trans-[(3S)-3-(3,5-difluorophenyl)isoxazolidin-2-yl]-[3-(5-fluoroindol-1-yl)cyclobutyl]methanone]	77 nM	353 nM
N#Cc1cc(F)cc([C@@H]2CCON2C(=O)[C@H]2C[C@@H](n3ccc4cc(F)ccc43)C2)c1 [Compound 107, cis-3-fluoro-5-[(3S)-2-[3-(5-fluoroindol-1-yl)cyclobutanecarbonyl]isoxazolidin-3-yl]benzonitrile]	19 nM	214 nM
O=C([C@H]1C[C@@H](n2ccc3cc(F)ccc32)C1)N1OCC[C@H]1c1cc(F)cc(F)c1 [Compound 108, cis-[(3S)-3-(3,5-difluorophenyl)isoxazolidin-2-yl]-[3-(5-fluoroindol-1-yl)cyclobutyl]methanone]	26 nM	94 nM
N#Cc1cc(F)cc([C@@H]2CCON2C(=O)[C@H]2C[C@@H](n3cc4cc(F)ccc4n3)C2)c1 [Compound 109, cis-3-fluoro-5-[(3S)-2-[3-(5-fluoroindazol-2-yl)cyclobutanecarbonyl]isoxazolidin-3-yl]benzonitrile]	55 nM	745 nM
O=C([C@H]1C[C@@H](n2cc3cc(F)ccc3n2)C1)N1OCC[C@H]1c1cc(F)cc(F)c1 [Compound 110, cis-[(3S)-3-(3,5-difluorophenyl)isoxazolidin-2-yl]-[3-(5-fluoroindazol-2-yl)cyclobutyl]methanone]	62 nM	97 nM
NC(=O)c1ccc(F)c(OC[C@H]2CC[C@H](C(=O)N3OCC[C@H]3c3cnccn3)CC2)c1 [Compound 111, trans-4-fluoro-3-[[4-[(3S)-3-pyrazin-2-ylisoxazolidine-2-carbonyl]cyclohexyl]methoxy]benzamide]	48 nM	153 nM
NC(=O)c1cc(F)cc(OC[C@H]2CC[C@H](C(=O)N3OCC[C@H]3c3cnccn3)CC2)c1 [Compound 112, trans-3-fluoro-5-[[4-[(3S)-3-pyrazin-2-ylisoxazolidine-2-carbonyl]cyclohexyl]methoxy]benzamide]	41 nM	47 nM
NC(=O)c1ccc(OC[C@H]2CC[C@H](C(=O)N3OCC[C@H]3c3cnccn3)CC2)c(F)c1 [Compound 113, trans-3-fluoro-4-[[4-[(3S)-3-pyrazin-2-ylisoxazolidine-2-carbonyl]cyclohexyl]methoxy]benzamide]	38 nM	97 nM
COc1cncc([C@@H]2CCON2C(=O)[C@H]2CC[C@H](COc3cccc(C(N)=O)c3)CC2)n1 [Compound 129, trans-3-[[4-[(3S)-3-(6-methoxypyrazin-2-yl)isoxazolidine-2-carbonyl]cyclohexyl]methoxy]benzamide]	11 nM	28 nM
Cc1nc([C@@H]2CCON2C(=O)[C@H]2CC[C@H](COc3cccc(C(N)=O)c3)CC2)cs1 [Compound 130, trans-3-[[4-[(3S)-3-(2-methylthiazol-4-yl)isoxazolidine-2-carbonyl]cyclohexyl]methoxy]benzamide]	37 nM	98 nM
NC(=O)c1cccc(OC[C@H]2CC[C@H](C(=O)N3OCC[C@H]3c3ccccn3)CC2)c1 [Compound 131, trans-3-[[4-[(3S)-3-(2-pyridyl)isoxazolidine-2-carbonyl]cyclohexyl]methoxy]benzamide]	47 nM	236 nM
